Patent US20230138563A1, “METHODS FOR QUANTIFICATION OF COMPOUNDS IN CULTIVARS OF Cannabis sp” (MEDLEAF BIOTECHNOLOGIES AND GLOBAL RESEARCH AND D[…]., priority 2020, published 2023)

Tests used:
[1] = tested on: U87 human glioma cells; conditions: in vitro, dose-dependently, 0.01 up to 9 μM; cited from earlier work
[2] = tested on: U87 human glioma cell line; conditions: cited from earlier work
[3] = tested on: U87 human glioma cells; conditions: mouse, in vivo; cited from earlier work
[4] = tested on: U-87 MG glioma cell; test: single-cell microfluidic intracellular calcium bioassay (Fluo-4 fluorescence); conditions: for [Ca^2+]i: single U-87 MG cell, calculated from fluorescence by eq. 1
Description: The current study was designed to investigate the pharmacological potential of CBD on calcium uptake in U87MG glioma cells by a method using a single-cell microfluidic approach.
The glass chip was fabricated through the standard micromachining processes at Canadian Microelectronic Corporation (CMC) by a process that includes standard chip cleaning, thin film deposition, photolithography, photoresist development, hydrofluoric acid wet etching, reservoir forming, and chip bonding, as previously reported (Li et al. 2005). The chip design is shown in FIG. 9, consisting of three reservoirs, three channels and one chamber containing the cell retention structure to isolate the single cell. Reservoir 1 was used for cell introduction and washing, reservoir 2 was used for reagent delivery, and reservoir 3 was a waste reservoir. The channel was 40 μm deep, while the reservoirs were 600 μm deep and 2.5 mm in diameter.
A fluorescent calcium probe, Fluo-4 AM ester (50 μg, special packaging, Molecular Probes, Eugene, Oreg.) was first dissolved in 50 μL of dimethyl sulfoxide (DMSO, 99.9%, Sigma-Aldrich, St. Louis, Mo.) to make a stock solution of 1 μg/μL. Before use, it was freshly diluted in Hanks' balanced salt solution (HBSS, Invitrogen Corp., Grand Island, N.Y.) to make a 5.0 μM working solution. Due to light sensitivity of Fluo-4 AM, it must be stored in the dark at −20° C. Cannabidiol (CBD) was purchased from Cerilliant Corporation (Round Rock, Tex.) as drug enforcement agency-exempt solution, i.e. 1 mg/mL solution in methanol (MeOH). Trypan blue solutions (4%) were purchased from Sigma-Aldrich (St. Louis, Mo.). RPMI 1640 medium solution, trypsin-ethylenediaminetetraacetic acid (Trypsin-EDTA) (0.025%), penicillin-streptomycin and fetal bovine serum (FBS) were obtained from Life Technologies (Grand Island, N.Y.). lonomycin (Calcium salt, Sigma Chemical Co.) was used to saturate the Ca^2+-Fluo-4 fluorescence within the cells. Ionomycin was dissolved in DMSO to make the stock solution which was finally diluted in HBSS containing 1 mM CaCl2 to make working solutions. The glioma cells (U-87 MG) were obtained from ATCC (Manassas, Va.). The cells were maintained in the RPMI medium with 10% fetal bovine serum and 1% penicillin in a 5% CO2 atmosphere at 37° C. and were passaged twice a week.
An optical imaging and fluorescent measurement system was used, as previously described (Li et al., 2009). Briefly, an inverted microscope (TE300, Nikon, Mississauga, ON, Canada) was connected to a video camera (JVC, TK-C3180). A TV set was used for optical observation (FIG. 2). By using a dichroic filter (620 nm), only red light entered the video camera for cell imaging without interfering with the fluorescent measurement. The green fluorescent emission (535 nm) was achieved under the Xenon arc lamp excitation (480 nm) selected by the microphotometer system (PTI) through a detection aperture. The chip was translated back and forth manually so the cellular fluorescence or background signal could be measured.
Before running any experiment, the microfluidic chip was cleaned by soap solution (2 times), rinsed with deionized water (3 to 5 times), and sterilized with 75% ethanol (1 time). After the cleaning step, […] of a cell suspension was introduced into the cell inlet from reservoir 1, the cells flowed from the left to right across the cell retention structure. By adjusting the liquid levels of the right […] (waste) and the left reservoir 1 (cell inlet), a desired U-87 MG cell was slowed down near the entrance of the cell retention structure. As the glioma cell is adherent, it readily becomes stationary to maintain its location in the retention structure. The glioma cell was allowed to settle for about 15 minutes, during which it was attached to the glass chip surface before the fluorescence measurement started.

[5] = tested on: U373 human glioma cell line; conditions: cited from earlier work
[6] = read-out: Kd (dissociation constant of the dye); cited from earlier work

SMILES: C=C(C)[C@@H]1CCC(C)=C[C@H]1c1c(O)cc(CCCCC)cc1O [CBD, cannabidiol]
- translocation of U87 human glioma cells [1]: inhibited
- mitochondrial oxidative metabolism ([2]; CBD exposure to cells): reduced
- antiproliferative effect ([2]; U87): antiproliferative effects
- viability of U87 human glioma cells in mice [3]: prohibited
- change of [Ca^2+]i (FIG. 10) ([4]; 9.5 μM CBD): increased slightly
- change of [Ca^2+]i (FIG. 10) ([4]; 19 μM CBD compared to 9.5 μM): significantly increased
- concentration dependence of intracellular [Ca^2+]i increase ([4]; CBD 9.5 and 19 μM): concentration-dependent manner
- cell viability by trypan blue at end of experiment ([4]; after 9.5 and 19 μM CBD and ionomycin): not dead
- [Ca^2+]i ([4]; after 9.5 μM CBD): 47.9 nM
- [Ca^2+]i ([4]; after 19 μM CBD): 913 nM
- antiproliferative effect [5]: antiproliferative effects

SMILES: Cc1ccc(N(CC(=O)O)CC(=O)O)c(OCCOc2cc(-c3c4cc(F)c(=O)cc-4oc4cc(O)c(F)cc34)ccc2N(CC(=O)O)CC(=O)O)c1 [Fluo-4]
- Kd [6]: 350 nM

SMILES: C[C@H](CCC(=O)O)C[C@H](C)C[C@H](C)C(=O)/C=C(\O)[C@H](C)C[C@H](C)C/C=C/[C@@H](C)[C@@H](O)[C@@H](C)[C@@H](O)C[C@@H]1CC[C@@](C)([C@H]2CC[C@@](C)([C@@H](C)O)O2)O1 [ionomycin, Ionomycin]
- fluorescence response after ionomycin (Fmax) ([4]; 10 μM ionomycin, at ~6000 s): obvious fluorescence peak

SMILES: C=CC(=C)CCC=C(C)C [myrcene]
- cell calcium response ([4]; 10 μM, data not shown): not detectable
- cell calcium response (FIG. 11) ([4]; 20 μM, alone): a little cell calcium response
